Data on one molecule can be found in publication PMC9233054 (Pharmaceutical development and technology, 2022).

Structures are written as SMILES. In brackets after ≈: the same amount, converted by molar mass.

Data set [1] is classed as physicochemical. The following applies: 1:1 cholecalciferol:HPBCD; calculated with theoretic S0.
For data set [2] the following is noted: HPBCD 0 mM (control, D.I. H2O), S0; ref Hamilton 2015; cited from earlier work.
The nature of a further data set: physchem. The following applies: water, thermodynamic from solid.

A word on the solubility: it is how much of the substance goes into solution per volume. For `C=C1CC[C@H](O)C/C1=C/C=C1\CCC[C@]2(C)[C@@H]([C@H](C)CCCC(C)C)CC[C@@H]12` [cholecalciferol], the “stability constant K1:1” value in data set [1] was 71900 mM⁻¹. Also, the “Saturated concentration of vitamin D3 in HPBCD solution (S)” value in data set [2] was 3.38×10^−8 (S0) ([Hamilton 2015]) mM. The solubility at 3 days in the data set “physchem” turned out to be 1.6 µM (≈ 0.615 µg/mL). Besides, the “Solubility increase ratio (S/S0)” value in “Phase solubility study” (HPBCD 0 mM (control, D.I. H2O)) was 1; in the data set “Phase solubility study” (HPBCD 10 mM), 5.92×10^5; in the data set “Phase solubility study” (HPBCD 40 mM) it was 1.42×10^7; in the data set “Phase solubility study” (HPBCD 50 mM), 2.29×10^7; in “Phase solubility study” (HPBCD 70 mM), 4.56×10^7; in the data set “Phase solubility study” (HPBCD 100 mM) it was 9.30×10^7. For the same molecule, the “Solubility increase ratio (S/S0)” value in “Phase solubility study” (HPBCD 120 mM) is 1.11×10^8; in “Phase solubility study” (HPBCD 150 mM), 1.90×10^8; in the data set “Phase solubility study” (HPBCD 170 mM), 2.31×10^8; in the data set “Phase solubility study” (HPBCD 200 mM) it was 3.29×10^8. In addition, the solubility increase ratio entry in “Phase solubility study” (different HPBCD molarities (Table 1)) is on record as “enhanced by five or more orders of magnitude”.
